Reference: patent US20250114374A1, “BCL-2 INHIBITORS” (Newave Pharmaceutical Inc., priority 2021, published 2025)

These molecules were tested on RS4; 11 with G101V mutation (assay: In vitro anti-proliferation assay (ATPlite luminescence) in BCL-2-dependent ALL cell line RS4;11 with G101V mutation). Conditions: Homo sapiens, RS4-11, 72 h; read-out: RS411-G101V IC50.
Type: cell-based
In short: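 RS4;11 G101V cells at about 1×10^4 per well were exposed to a range of compound concentrations for about 72 h in medium with 10% FBS. Cellular ATP was measured by ATPlite luminescence after lysis, and IC50 was derived from the dose-response.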

| IC50 | SMILES |
| --- | --- |
| 9.6 nM | CC(C)Oc1ccccc1[C@@H]1CN(Cc2ccc(F)c(F)c2)CCN1C1CC2(CCN(c3ccc(C(=O)NS(=O)(=O)c4cc5c(c([N+](=O)[O-])c4)N[C@H](C4CCOCC4)CO5)c(N4c5cc6cc[nH]c6nc5O[C@H]5COCC[C@@H]54)c3)CC2)C1 [Example 181, 4-(2-((R)-4-(3,4-difluorobenzyl)-2-(2-isopropoxyphenyl)piperazin-1-yl)-7-azaspiro[3.5]nonan-7-yl)-N-(((R)-5-nitro-3-(tetrahydro-2H-pyran-4-yl)-3,4-dihydro-2H-benzo[b][1,4]oxazin-7-yl)sulfonyl)-2-((5aS,9aR)-6,7,9,9a-tetrahydro-1H-pyrano[3,4-b]pyrrolo[3′,2′:5,6]pyrido[3,2-e][1,4]oxazin-5(5aH)-yl)benzamide] |
| 58.1 nM | CC(C)Oc1ccccc1[C@@H]1CN(C2CCOCC2)CCN1C1CC2(CCN(c3ccc(C(=O)NS(=O)(=O)c4cc5c(c([N+](=O)[O-])c4)N[C@H](C4CCOCC4)CO5)c(N4c5cc6cc[nH]c6nc5O[C@H]5COCC[C@@H]54)c3)CC2)C1 [Example 182, 4-(2-((R)-2-(2-isopropoxyphenyl)-4-(tetrahydro-2H-pyran-4-yl)piperazin-1-yl)-7-azaspiro[3.5]nonan-7-yl)-N-(((R)-5-nitro-3-(tetrahydro-2H-pyran-4-yl)-3,4-dihydro-2H-benzo[b][1,4]oxazin-7-yl)sulfonyl)-2-((5aS,9aR)-6,7,9,9a-tetrahydro-1H-pyrano[3,4-b]pyrrolo[3′,2′:5,6]pyrido[3,2-e][1,4]oxazin-5(5aH)-yl)benzamide] |
| 73.3 nM | Cc1ccccc1[C@@H]1CN(C2CCOCC2)CCN1C1CC2(CCN(c3ccc(C(=O)NS(=O)(=O)c4cc5c(c([N+](=O)[O-])c4)N[C@H](C4CCOCC4)CO5)c(N4c5cc6cc[nH]c6nc5O[C@H]5COCC[C@@H]54)c3)CC2)C1 [Example 183, N—(((R)-5-nitro-3-(tetrahydro-2H-pyran-4-yl)-3,4-dihydro-2H-benzo[b][1,4]oxazin-7-yl)sulfonyl)-2-((5aS,9aR)-6,7,9,9a-tetrahydro-1H-pyrano[3,4-b]pyrrolo[3′,2′:5,6]pyrido[3,2-e][1,4]oxazin-5(5aH)-yl)-4-(2-((R)-4-(tetrahydro-2H-pyran-4-yl)-2-(o-tolyl)piperazin-1-yl)-7-azaspiro[3.5]nonan-7-yl)benzamide] |

Same assay, conditions: cellular anti-proliferative IC50, about 72 hours, medium with 10% FBS, ATPlite; read-out: RS411-G101V IC50

| SMILES | IC50 |
| --- | --- |
| CC(C)c1ccccc1[C@@H]1CN(Cc2ccc(F)c(F)c2)CCN1C1CC2(CCN(c3ccc(C(=O)NS(=O)(=O)c4cc5c(c([N+](=O)[O-])c4)N[C@H](C4CCOCC4)CO5)c(N4c5cc6cc[nH]c6nc5O[C@H]5COCC[C@@H]54)c3)CC2)C1 [Example 180, 4-{2-[(2R)-4-[(3,4-difluorophenyl)methyl]-2-(2-isopropylphenyl)piperazin-1-yl]-7-azaspiro[3.5]nonan-7-yl}-2-[(3R,8S)-2,5-dioxa-9,15,17-triazatetracyclo[8.7.0.0^{3,8}.0^{12,16}]heptadeca-1(10),11,13,16-tetraen-9-yl]-N-[(3R)-5-nitro-3-(oxan-4-yl)-3,4-dihydro-2H-1,4-benzoxazin-7-ylsulfonyl]benzamide] | 7.5 nM |
| Cc1ccccc1[C@@H]1CN(CC2CCOCC2)CCN1C1CC2(CCN(c3ccc(C(=O)NS(=O)(=O)c4cc5c(c([N+](=O)[O-])c4)N[C@H](C4CCOCC4)CO5)c(N4c5cc6cc[nH]c6nc5O[C@H]5COCC[C@@H]54)c3)CC2)C1 [Example 184, 2-[(3R,8S)-2,5-dioxa-9,15,17-triazatetracyclo[8.7.0.0^{3,8}.0^{12,16}]heptadeca-1(10),11,13,16-tetraen-9-yl]-4-{2-[(2R)-2-(2-methylphenyl)-4-(oxan-4-ylmethyl)piperazin-1-yl]-7-azaspiro[3.5]nonan-7-yl}-N-[(3R)-5-nitro-3-(oxan-4-yl)-3,4-dihydro-2H-1,4-benzoxazin-7-ylsulfonyl]benzamide] | 40.6 nM |
| CC(C)Oc1ccccc1[C@H]1CN(Cc2ccc(F)c(F)c2)CCN1C1CC2(CCN(c3ccc(C(=O)NS(=O)(=O)c4ccc(NCC5CCOCC5)c([N+](=O)[O-])c4)c(N4c5cc6cc[nH]c6nc5O[C@H]5COCC[C@@H]54)c3)CC2)C1 [Example 185, 4-{2-[(2S)-4-[(3,4-difluorophenyl)methyl]-2-(2-isopropoxyphenyl)piperazin-1-yl]-7-azaspiro[3.5]nonan-7-yl}-2-[(3R,8S)-2,5-dioxa-9,15,17-triazatetracyclo[8.7.0.0^{3,8}.0^{12,16}]heptadeca-1(10),11,13,16-tetraen-9-yl]-N-{3-nitro-4-[(oxan-4-ylmethyl)amino]benzenesulfonyl}benzamide] | 112 nM |
| CC(C)Oc1ccccc1[C@@H]1CN(Cc2ccc(F)c(F)c2)CCN1C1CC2(CCN(c3ccc(C(=O)NS(=O)(=O)c4ccc(NCC5CCOCC5)c([N+](=O)[O-])c4)c(N4c5cc6cc[nH]c6nc5O[C@H]5COCC[C@@H]54)c3)CC2)C1 [Example 186, 4-{2-[(2R)-4-[(3,4-difluorophenyl)methyl]-2-(2-isopropoxyphenyl)piperazin-1-yl]-7-azaspiro[3.5]nonan-7-yl}-2-[(3R,8S)-2,5-dioxa-9,15,17-triazatetracyclo[8.7.0.0^{3,8}.0^{12,16}]heptadeca-1(10),11,13,16-tetraen-9-yl]-N-{3-nitro-4-[(oxan-4-ylmethyl)amino]benzenesulfonyl}benzamide] | 10.6 nM |
| COc1cc(CN2CCN(C3CC4(CCN(c5ccc(C(=O)NS(=O)(=O)c6cc7c(c([N+](=O)[O-])c6)N[C@H](C6CCOCC6)CO7)c(N6c7cc8cc[nH]c8nc7O[C@H]7COCC[C@@H]76)c5)CC4)C3)[C@H](c3ccccc3C)C2)cnc1N1CCOC[C@@H]1C [Example 187, 2-[(3R,8S)-2,5-dioxa-9,15,17-triazatetracyclo[8.7.0.0^{3,8}.0^{12,16}]heptadeca-1(10),11,13,16-tetraen-9-yl]-4-{2-[(2R)-4-({5-methoxy-6-[(3S)-3-methylmorpholin-4-yl]pyridin-3-yl}methyl)-2-(2-methylphenyl)piperazin-1-yl]-7-azaspiro[3.5]nonan-7-yl}-N-[(3R)-5-nitro-3-(oxan-4-yl)-3,4-dihydro-2H-1,4-benzoxazin-7-ylsulfonyl]benzamide] | 2.04 nM |
| COc1cc(CN2CCN(C3CC4(CCN(c5ccc(C(=O)NS(=O)(=O)c6cc7c(c([N+](=O)[O-])c6)N[C@H](C6CCOCC6)CO7)c(N6c7cc8cc[nH]c8nc7O[C@H]7COCC[C@@H]76)c5)CC4)C3)[C@H](c3ccccc3C)C2)cnc1N1CCOC[C@H]1C [Example 188, 2-[(3R,8S)-2,5-dioxa-9,15,17-triazatetracyclo[8.7.0.0^{3,8}.0^{12,16}]heptadeca-1(10),11,13,16-tetraen-9-yl]-4-{2-[(2R)-4-({5-methoxy-6-[(3R)-3-methylmorpholin-4-yl]pyridin-3-yl}methyl)-2-(2-methylphenyl)piperazin-1-yl]-7-azaspiro[3.5]nonan-7-yl}-N-[(3R)-5-nitro-3-(oxan-4-yl)-3,4-dihydro-2H-1,4-benzoxazin-7-ylsulfonyl]benzamide] | 11.1 nM |
